Values quoted from earlier work, collected in patent US7960544B2, “Useful indole compounds” (Ironwood Pharmaceuticals, Inc., priority 2005, dated 2011).
Values belong to the compound of their own block, whether it stands above or below them.

Experiments:
CCR3 = settings: cross-desensitization
DAO = DAO (Homo sapiens, UniProt P14920)
MCF-7 cells = settings: up to 100 μM

Chain of DAO (P14920 whole entry): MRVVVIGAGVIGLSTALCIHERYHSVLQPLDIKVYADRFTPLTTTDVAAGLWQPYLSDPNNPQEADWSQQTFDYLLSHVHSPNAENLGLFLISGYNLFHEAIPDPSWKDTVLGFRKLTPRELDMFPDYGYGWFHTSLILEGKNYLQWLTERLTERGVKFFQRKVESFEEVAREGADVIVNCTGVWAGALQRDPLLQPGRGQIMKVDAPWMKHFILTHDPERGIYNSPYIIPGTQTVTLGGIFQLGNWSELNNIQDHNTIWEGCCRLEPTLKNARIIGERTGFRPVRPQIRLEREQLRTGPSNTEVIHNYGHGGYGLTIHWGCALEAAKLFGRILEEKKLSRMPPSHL

SMILES: Cc1c(CC(=O)O)c2cc(O)ccc2n1C(=O)c1ccc(Cl)cc1 [desmethyl metabolite, (1-(4-chlorobenzoyl)-5-hydroxy-2-methyl-1H-indol-3-yl]acetic acid]
ability to inhibit prostaglandin synthesis (prostaglandin synthesis): has some ability to inhibit prostaglandin synthesis

inhibition of DAO (DAO): inhibitor of DAO
SMILES: COc1ccc2c(c1)c(CC(=O)O)c(C)n2C(=O)c1ccc(Cl)cc1 [indomethacin]
expression of CCR3, the receptor for eotaxin (CCR3): reduces expression of CCR3

SMILES: CCCCC/C=C\C/C=C\C/C=C\C/C=C\CCCC(=O)NCCO [anandamide]
cell viability (as assessed by trypan blue) (MCF-7 cells): No significant decrease in cell viability
